According to PubChem BioAssay AID720589 (Broad Institute, 2013):
Calls of active or inactive are those of the source.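 How the source made its calls: active means fitted curve drops below -35% activity at a concentration within twice the top valid tested dose; inconclusive means no clear call, values can overlap the other calls; inactive means signal rising instead of falling, among other cases.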

assay: HepG2 hepatoma cell cytotoxicity, dose response, cytotoxicity control, CellTiter-Glo luminescence, cherry-pick, set 3 (AID 720589); settings: HepG2 viability, ATP luminescence (CellTiter-Glo), 72 h; at 0.011 µM; hits give low values; 0% = untreated, negative = ATP loss

Question: For `CN(C)[C@@H]1CCC[C@@H]1OC(=O)C(c1ccccc1)c1ccccc1`, which max activity is on record?
Answer: 32.6% (inactive)

Question: Which max activity does the source give for `COc1ccccc1N(/N=C1\Sc2ccccc2C1=O)C(C)=O` here?
Answer: -37.6% (inactive)

Question: With `COC(=O)C[C@@H]1CC[C@@H]2[C@H](COc3ccc(NC(=O)c4cc(F)cc(F)c4)cc3C(=O)N2C)O1` as the compound, how does the max activity read?
Answer: -46.8% (inactive)

Question: With `CCCCNC(=O)C(c1ccc(OCC(=O)OC)c(C(=O)OC)c1)N(CCOC)C(=O)CCCCCN1C(=O)NC(c2ccc(-c3ccccc3)cc2)C(C(=O)OCc2ccccc2)=C1C` (configuration not stated) as the compound, how does the max activity read?
Answer: 32.5% (inactive)

Question: For `Cc1cc(C(=O)NNC(=O)c2ccc(S(=O)(=O)N(C)C)cc2)c(C)o1`, which max activity is on record?
Answer: 20% (inactive)

Question: For `COC(=O)C[C@@H]1CC[C@@H]2[C@H](COc3ccc(NC(=O)c4ccc(C(F)(F)F)cc4)cc3C(=O)N2C)O1`, which max activity is on record?
Answer: -32.2% (inactive)

Question: With `COc1ccccc1NS(=O)(=O)c1cc(NC(=O)c2cc3ccccc3oc2=O)ccc1C` as the compound, how does the max activity read?
Answer: -20.4% (inactive)

Question: For `COc1ccc(NC(=O)N(C)[C@H]2C[C@H]3c4[nH]c5ccccc5c4CCN3C(=O)[C@H]2CO)cc1`, which max activity is on record?
Answer: -20.5% (inactive)

Question: With `Cc1cccc(N2CCN(C3C(=O)Nc4ccccc4-n4nnnc43)CC2)c1C` (configuration not stated) as the compound, how does the max activity read?
Answer: 12.3% (inactive)

Question: For `O=C(NCc1ccc(F)cc1)N1[C@H]2CC[C@@H]1C=C(c1ccc(F)cc1OCc1ccccc1)C2`, which max activity is on record?
Answer: 21.9% (inactive)

Question: Which max activity does the source give for `COC(=O)C[C@H]1CC[C@H]2[C@H](COc3ccc(NC(=O)Nc4cccc(Cl)c4)cc3C(=O)N2C)O1` here?
Answer: -21.5% (inactive)

Question: For `CC(=NNc1ccc2ccccc2n1)c1ccccc1O`, which max activity is on record?
Answer: -35.4% (inactive)

Question: With `C(=C\c1ccc(C2[C@H]3CNC[C@@H]2N3Cc2ccccn2)cc1)/c1ccccc1` (some centres not stated) as the compound, how does the max activity read?
Answer: -23.3% (inactive)

same assay, conditions: HepG2 viability, ATP luminescence (CellTiter-Glo), 72 h; at 0.012 µM; hits give low values; 0% = untreated, negative = ATP loss

Question: Which max activity does the source give for `N#C[C@@H]1[C@H](c2ccc(C#Cc3cccc(F)c3)cc2)[C@@H](CO)N1C(=O)C1CCCC1` here?
Answer: 24% (inactive)

same assay, conditions: HepG2 viability, ATP luminescence (CellTiter-Glo), 72 h; at 0.035 µM; hits give low values; 0% = untreated, negative = ATP loss

Question: Which max activity does the source give for `S=C(NCCN1CCOCC1)Nc1ccccc1Cl` here?
Answer: -36.4% (inactive)

Question: With `Cc1c(Cl)cnc(NC(=O)COC(=O)c2ccc3ncsc3c2)c1Cl` as the compound, how does the max activity read?
Answer: -18.7% (inactive)

Question: For `N#CC1C=Cc2c(ccc3ccccc23)N1C(=O)c1ccccc1` (configuration not stated), which max activity is on record?
Answer: -32.3% (inactive)

Question: Which max activity does the source give for `COC(=O)C[C@@H]1CC[C@@H]2[C@H](COc3ccc(NC(=O)c4ccc(F)c(F)c4)cc3C(=O)N2C)O1` here?
Answer: -21% (inactive)

same assay, conditions: HepG2 viability, ATP luminescence (CellTiter-Glo), 72 h; at 0.1 µM; hits give low values; 0% = untreated, negative = ATP loss

Question: For `COCCOC(=O)N1C(=O)[C@@]2(c3cc(C#CCC(C(=O)OC)C(=O)OC)ccc31)[C@H](c1ccccc1OCCO)N1[C@H](c3ccccc3)[C@H](c3ccccc3)OC(=O)[C@H]1[C@@H]2C(=O)N1CCN(c2ncccn2)CC1`, which max activity is on record?
Answer: -30.6% (inactive)

Question: For `Cc1c(Cc2ccc3c(c2)OCO3)sc(NC(=O)C(C)(C)C)c1C#N`, which max activity is on record?
Answer: -26.7% (inactive)

Question: Which max activity does the source give for `Cc1ccc(S(=O)(=O)N(C)C[C@@H]2Oc3cc(C#Cc4ccncc4)ccc3S(=O)(=O)N([C@@H](C)CO)C[C@H]2C)cc1` here?
Answer: -24.6% (inactive)

Question: Which max activity does the source give for `C/C(=N\Nc1cccc2cccnc12)c1ccccn1` here?
Answer: -36.8% (inactive)

Question: For `COc1cccc(S(=O)(=O)N(C)C[C@H]2OCc3cnnn3CCCC(=O)N([C@@H](C)CO)C[C@H]2C)c1`, which max activity is on record?
Answer: -29.1% (inactive)

Question: With `CCC(C)Cn1c(O)cc2nn(-c3nc4ccccc4s3)c(=O)c-2c1C` (configuration not stated) as the compound, how does the max activity read?
Answer: -32.2% (inactive)

Question: Which max activity does the source give for `COc1ccc(OC)c(-c2cc(C(F)(F)F)c3c(n2)sc2c(O)cc(=O)[nH]c23)c1` here?
Answer: -37% (inactive)

Question: For `CCc1ccc(N2C=C(C(=O)OC)C(c3ccc(OC)cc3)C(C#N)=C2N)cc1` (configuration not stated), which max activity is on record?
Answer: -15.5% (inactive)

Question: Which max activity does the source give for `CC(=O)c1ccc(NC(=O)c2noc3c2CCC3)cc1` here?
Answer: -34.6% (inactive)

Question: Which max activity does the source give for `Cc1cc(C)cc(OCC(=O)OCC(=O)Nc2cc(S(=O)(=O)N3CCOCC3)ccc2C)c1` here?
Answer: -15.3% (inactive)

Question: Which max activity does the source give for `Cc1sc2nc(CN3CCC(C)CC3)nc(Cl)c2c1C` here?
Answer: 16.4% (inactive)

Question: With `COC(=O)Cc1ccc(NC(=O)c2ccccc2Cl)cc1` as the compound, how does the max activity read?
Answer: -26.9% (inactive)

same assay, conditions: HepG2 viability, ATP luminescence (CellTiter-Glo), 72 h; at 0.3 µM; hits give low values; 0% = untreated, negative = ATP loss

Question: Which max activity does the source give for `COc1ccc(/C=C2\Oc3ccccc3C2=O)cc1` here?
Answer: 21% (inactive)

Question: For `O=C1c2ccccc2C(=O)N1CCCCNc1ccccc1`, which max activity is on record?
Answer: -34.9% (inactive)

Question: For `CN(C)c1ccc(N=Nc2ccc(C(=O)O)cc2)cc1`, which max activity is on record?
Answer: -28.7% (inactive)

Question: Which max activity does the source give for `C[C@@H]1CCCCO[C@@H](CN(C)C(=O)Cc2ccccc2)[C@@H](C)CN([C@@H](C)CO)C(=O)c2cc(NS(=O)(=O)c3ccc(F)cc3)ccc2O1` here?
Answer: -23.7% (inactive)

Question: Which max activity does the source give for `COC(=O)C[C@H]1CC[C@@H]2[C@H](COc3ccc(NC(=O)Nc4cccc(Cl)c4)cc3C(=O)N2C)O1` here?
Answer: -38.3% (inactive)

same assay, conditions: HepG2 viability, ATP luminescence (CellTiter-Glo), 72 h; at 0.9 µM; hits give low values; 0% = untreated, negative = ATP loss

Question: With `O=c1oc2cc(O)ccc2s1` as the compound, how does the max activity read?
Answer: -35.6% (inactive)

Question: With `N#C[C@H]1[C@H](c2ccc(-c3ccccc3F)cc2)[C@@H](CO)N1C(=O)c1ccccn1` as the compound, how does the max activity read?
Answer: -27.4% (inactive)
